Drawing on patent US6512000B1, “Aminocarbonyl-substituted benzimidazoles having tryptase-inhibitory activity” (Boehringer Ingelheim Pharma KG, priority 1999, dated 2003), this text covers IC50 and melting point for 17 compounds.

Where a name gives a salt, the structure may show the parent alone.

The target of one series is T1, rh beta tryptase (Homo sapiens, UniProt P20231).
T1 construct: purchased Promega
T1 sequence (P20231 31-275): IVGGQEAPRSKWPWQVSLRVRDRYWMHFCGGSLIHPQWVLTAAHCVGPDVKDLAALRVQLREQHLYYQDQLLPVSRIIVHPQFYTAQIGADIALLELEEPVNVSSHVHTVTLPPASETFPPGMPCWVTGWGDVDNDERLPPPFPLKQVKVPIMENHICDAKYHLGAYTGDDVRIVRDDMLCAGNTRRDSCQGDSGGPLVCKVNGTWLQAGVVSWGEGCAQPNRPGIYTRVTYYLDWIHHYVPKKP
Kind of series: Tryptase inhibition test (cleavage of N-p-tosyl-Gly-Pro-Lys-para-nitroaniline, p-nitroaniline measured at 405 nm). The class given is biochemical. The settings on record: concentration at which 50% of the tryptase enzyme activity is inhibited; substrate 0.6 mM, pH 7.4, 37° C. The method in brief: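 Recombinant human beta tryptase (0.91 U/ml) in 100 mM Tris HCl pH 7.4 with 5 mM calcium and 100 mg/ml heparin; compounds pre-incubated 5 min, then 0.6 mM tosyl-Gly-Pro-Lys-pNA added, 5 min at 37 °C. p-Nitroaniline read at 405 nm; % inhibition at 10 μM, IC50 determined when inhibition exceeded 70%.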
The term IC50 denotes the concentration that gives 50% inhibition. On to `Cl.Cl.Cn1c(CCc2ccc(C(=N)N)cc2)nc2cc(C(=O)N(CCN(Cc3ccccc3)Cc3ccccc3)C3CCCCC3)ccc21` [Example 2, 2-[2-(4-Amidinophenyl)ethyl]-1-methyl-benzimidazol-5-yl-carboxylic Acid-N-[2-(N,N-dibenzylamino)ethyl]-N-cyclohexyl-amide-dihydrochloride], for which 0.153 µM corresponded to half-maximal inhibition (IC50).

Test system in the next series: not given
Experiment: not given
Details: not given
In general, melting point refers to the temperature, or range, at which the solid turns liquid. The compound `Cn1c(CCc2ccc(C(=N)N)cc2)nc2cc(C(=O)NCCC(c3ccccc3)c3ccccc3)ccc21` (as salt: hydrochloride) came in with a melting point of 185 °C.
`CN(Cc1cccnc1)C(=O)c1ccc2c(c1)nc(CCc1ccc(C(=N)N)cc1)n2C` (as salt: hydrochloride) [Example 1, 2-[2-(4-Amidinophenyl)ethyl]-1-methyl-benzimidazol-5-yl-carboxylic Acid-N-(pyridin-3-yl-methyl)-N-methyl-amide-hydrochloride]: the melting point is > 220 °C.
Regarding `CN(C)CCN(C)C(=O)c1ccc2c(c1)nc(CCc1ccc(C(=N)N)cc1)n2C` (as salt: hydrochloride) [Example 3, 2-[2-(4-Amidinophenyl)-ethyl]1l-methyl-benzimidazol-5-yl-carboxylic Acid-N-[2-(N,N-dimethylamino)-ethyl]-N-methyl-amide-dihydrochlonide], the melting point was > 220 °C.
Regarding `CN(Cc1ccc(C(=N)N)cc1)C(=O)c1ccc2c(c1)nc(CCc1ccc(C(=N)N)cc1)n2C` (as salt: hydrochloride) [Example 4, 2-[2-(4-Amidinophenyl)-ethyl]-1-methyl-benzimidazol-5-yl-carboxylic Acid-N-(4-amidino-benzyl)-N-methyl-amide-trihydrochloride], the melting point is > 220 °C.
Take `Cn1c(CCc2ccc(C(=N)N)cc2)nc2cc(C(=O)N(CCC(=N)N)Cc3cnc4ccccc4c3)ccc21` (as salt: hydrochloride) [Example 8, 2-[2-(4-Amidinophenyl)-ethyl]-1-methyl-benzimidazol-5-yl-carboxylic Acid-N-(2-amidinoethyl)-N-(quinolin-3-yl-methyl)-amide-dihydrochloride]: the melting point was > 220 °C.
With `Cn1c(CCc2ccc(C(=N)N)cc2)nc2cc(C(=O)N(CCC(=N)N)Cc3ccccc3)ccc21` (as salt: hydrochloride) [Example 9, 2-[2-(4-Amidinophenyl)-ethyl]-1-methyl-benzimidazol-5-yl-carboxylic Acid-N-(2-amidinoethyl)-N-benzyl-amide-dihydrochloride], the melting point is > 220 °C.
Consider `Cn1c(CCc2ccc(C(=N)N)cc2)nc2cc(C(=O)N(CCC(=N)N)Cc3cccnc3)ccc21` (as salt: hydrochloride) [Example 10, 2-[2-(4-Amidinophenyl)-ethyl]-1-methyl-benzimidazol-5-yl-carboxylic Acid-N-(2-amidinoethyl)-N-(3-pyridylmethyl)-amide-dihydrochloride], for which the melting point was in the range of 225 to 228 °C.
Take `CC(C)CN(CCC(=N)N)C(=O)c1ccc2c(c1)nc(CCc1ccc(C(=N)N)cc1)n2C` (as salt: hydrochloride) [Example 11, 2-[2-(4-Amidinophenyl)-ethyl]-1-methyl-benzimidazol-5-yl-carboxylic Acid-N-(2-amidinoethyl)-N-iso-butyl-amide-dihydrochloride]: the melting point was in the range of 204 to 210 °C.
As to `CN(C(=O)c1ccc2c(c1)nc(CCc1ccc(C(=N)N)cc1)n2C)c1cccnc1` (as salt: hydrochloride) [Example 18, 2-[2-(4-Amidinophenyl)-ethyl]-1-methyl-benzimidazol-5-yl-carboxylic Acid-N-methyl-N-(3-pyridyl)-amide-hydrochloride], the melting point was > 220 °C.
Consider `Cn1c(CCc2ccc(C(=N)N)cc2)nc2cc(C(=O)N(CCC(=N)N)CCc3ccccc3)ccc21` (as salt: hydrochloride) [Example 24, 2-[2-(4-Amidinophenyl)-ethyl]-1-methyl-benzimidazol-5-yl-carboxylic Acid-N-(2-amidinoethyl)-N-(2-phenylethyl)-amide-dihydrochloride], for which the melting point is 185 to 190 °C.
Take `Cn1c(CCc2ccc(C(=N)N)cc2)nc2cc(C(=O)N(CCC(=N)N)C3CCCCCCC3)ccc21` (as salt: hydrochloride) [Example 25, 2-[2-(4-Amidinophenyl)-ethyl]-1-methyl-benzimidazol-5-yl-carboxylic Acid-N-(2-amidinoethyl)-N-cyclooctyl-amide-dihydrochloride]: the melting point is 200 to 210 °C.
Regarding `Cc1ccc(N(CCC(=N)N)C(=O)c2ccc3c(c2)nc(CCc2ccc(C(=N)N)cc2)n3C)cc1` (as salt: hydrochloride) [Example 26, 2-[2-(4-Amidinophenyl)-ethyl]-1-methyl-benzimidazol-5-yl-carboxylic Acid-N-(2-amidinoethyl)-N-(4-methyl-phenyl)-amide-dihydrochloride], the melting point lay in the range of 222 to 225 °C.
Same read-out and setting: with `CC(C)N(CCC(=N)N)C(=O)c1ccc2c(c1)nc(CCc1ccc(C(=N)N)cc1)n2C` (as salt: hydrochloride) [Example 27, 2-[2-(4-Amidinophenyl)-ethyl]-1-methyl-benzimidazol-5-yl-carboxylic Acid-N-(2-amidinoethyl)-N-iso-propyl-amide-dihydrochloride] the figure was 195 to 200 °C; with `Cn1c(CCc2ccc(CN)cc2)nc2cc(C(=O)NCCC(c3ccccc3)c3ccccc3)ccc21` (as salt: hydrochloride) [Example 40, 2-[2-(4-Aminomethyl-phenyl)-ethyl]-1-methyl-benzimidazol-5-yl-carboxylic Acid-N-(3,3-diphenylpropyl)-amide-dihydrochloride], 140 °C; with `Cn1c(CCc2ccc(CN)cc2)nc2cc(C(=O)N(CCC(c3ccccc3)c3ccccc3)Cc3ccc(CN)cc3)ccc21` (as salt: hydrochloride) [Example 43, 2-[2-(4-Aminomethyl-phenyl)-ethyl]-1-methyl-benzimidazol-5-yl-carboxylic Acid-N-(4-aminomethylbenzyl)-N-(3,3-diphenylpropyl)-amide-dihydrochloride], 140 °C.
`Cl.Cl.Cn1c(CCc2ccc(C(=N)N)cc2)nc2cc(C(=O)N(CCN(Cc3ccccc3)Cc3ccccc3)C3CCCCC3)ccc21` [Example 2, 2-[2-(4-Amidinophenyl)ethyl]-1-methyl-benzimidazol-5-yl-carboxylic Acid-N-[2-(N,N-dibenzylamino)ethyl]-N-cyclohexyl-amide-dihydrochloride]: the melting point lay in the range of 140 to 148 °C.
On the same count and under the same terms, with `Cn1c(CCc2ccc(C(=N)N)cc2)nc2cc(C(=O)NC(Cc3ccc(C(=N)N)cc3)C(=O)O)ccc21` (stereo not drawn) [Example 30, 2-{2-[2-(4-Amidinophenyl)-ethyl]-1-methyl-benzimidazol-5-yl-carbonylamino}-3-(4-amidinophenyl)-propionic Acid-diformate] the figure was 165 °C.
